Converted amounts (≈) assume the structure as drawn.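 Protocol summary: plate cells (96-well), add compound at 5 concentrations, incubate 48 h, interpolate endpoints linearly. GI50 is the concentration that inhibits growth by half. TGI is the concentration that stops growth completely.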
How the values were obtained:
Assay in all cases: NCI tumour cell line growth inhibition, 48 h
UACC-257 melanoma = system: UACC-257 melanoma
HCT-15 colon = system: HCT-15 colon
K-562 leukemia = system: K-562 leukemia
SNB-75 CNS = system: SNB-75 CNS
NCI/ADR-RES ovarian = system: NCI/ADR-RES ovarian
MCF7 breast = system: MCF7 breast
CAKI-1 renal = system: CAKI-1 renal
SK-MEL-2 melanoma = system: SK-MEL-2 melanoma
UACC-62 melanoma = system: UACC-62 melanoma
SF-268 CNS = system: SF-268 CNS

CCP(=O)(CC)C(Cl)Cl
TGI (UACC-257 melanoma): > 100 µM | TGI (HCT-15 colon): > 100 µM | TGI (K-562 leukemia): > 100 µM | TGI (SNB-75 CNS): > 100 µM | TGI (NCI/ADR-RES ovarian): > 100 µM | TGI (MCF7 breast): > 100 µM | TGI (CAKI-1 renal): > 100 µM | TGI (SK-MEL-2 melanoma): > 100 µM

CC(=O)Nc1ccc(C(=O)NN2C(=O)C(Cl)/C2=C/c2ccco2)cc1 (stereo not drawn)
TGI (UACC-257 melanoma): > 100 µM | TGI (K-562 leukemia): > 100 µM | TGI (SNB-75 CNS): > 100 µM | TGI (UACC-62 melanoma): > 100 µM | TGI (SK-MEL-2 melanoma): > 100 µM | TGI (SF-268 CNS): > 100 µM

O=C1CC2CC3OC3[C@H]3c4cc5c(cc4C(=O)N1C23)OCO5 (stereo partly drawn)
TGI (HCT-15 colon): > 100 µM | TGI (K-562 leukemia): > 100 µM | TGI (UACC-62 melanoma): > 100 µM | TGI (CAKI-1 renal): > 100 µM | TGI (SK-MEL-2 melanoma): > 100 µM | TGI (SF-268 CNS): > 100 µM

COc1cc(C(C)O)c(S(=O)(=O)CC(C)O)nn1 (stereo not drawn)
TGI (UACC-257 melanoma): > 100 µM | TGI (HCT-15 colon): > 100 µM | TGI (K-562 leukemia): > 100 µM | TGI (NCI/ADR-RES ovarian): > 100 µM | TGI (UACC-62 melanoma): > 100 µM | TGI (MCF7 breast): > 100 µM | TGI (CAKI-1 renal): > 100 µM

CC(=O)c1c(C)nc(SSc2nc(C)c(C(C)=O)c(-c3ccc(Cl)cc3)c2C#N)c(C#N)c1-c1ccc(Cl)cc1
GI50 (UACC-257 melanoma): > 150 µg/mL | TGI (UACC-257 melanoma): > 150 µg/mL | GI50 (HCT-15 colon): > 150 µg/mL | TGI (HCT-15 colon): > 150 µg/mL | GI50 (K-562 leukemia): 60.6 µg/mL (≈ 100 µM) | TGI (K-562 leukemia): > 150 µg/mL | GI50 (SNB-75 CNS): 23.3 µg/mL (≈ 38.7 µM) | TGI (SNB-75 CNS): 80.3 µg/mL | GI50 (NCI/ADR-RES ovarian): 118 µg/mL (≈ 196 µM) | TGI (NCI/ADR-RES ovarian): > 150 µg/mL | GI50 (UACC-62 melanoma): 29 µg/mL (≈ 48 µM) | TGI (UACC-62 melanoma): > 150 µg/mL | GI50 (MCF7 breast): > 150 µg/mL | TGI (MCF7 breast): > 150 µg/mL | GI50 (CAKI-1 renal): 62.7 µg/mL (≈ 104 µM) | TGI (CAKI-1 renal): > 150 µg/mL | GI50 (SF-268 CNS): 102 µg/mL (≈ 169 µM) | TGI (SF-268 CNS): > 150 µg/mL

O=C(N/N=C/c1cc(Cl)cc(Cl)c1[O-])c1ccccc1O.O=C(N/N=C/c1cc(Cl)cc(Cl)c1[O-])c1ccccc1O.[Co+2]
TGI (UACC-257 melanoma): 14.6 µM | TGI (HCT-15 colon): 13.8 µM | TGI (SNB-75 CNS): 18.9 µM | TGI (UACC-62 melanoma): 3.43 µM | TGI (CAKI-1 renal): 6.3 µM | GI50 (SK-MEL-2 melanoma): 0.37 µM | TGI (SK-MEL-2 melanoma): 3.74 µM | TGI (SF-268 CNS): 21.2 µM
